Assay results from US7723072B2, “Polypeptide factor from a thermophilic eubacterial species and use thereof in the production of functional, heterologous proteins in an expression host” (University of Limerick, priority 2003, dated 2010).
Read-outs that look alike come from different tables or passages of the source.

B1: czrB: Polypeptide factor from Thermus thermophilus, 291 amino acids (SEQ ID NO: 1), co-expressed in E. coli (protein)
chain: MAEGAARLSLVVALLVLGLKAFAYLLTGSVALLSDALESLVNVAAALAALLALRVARKPPDQNHPFGHTKAEYVSAVLEGVLVVLAALWIAREALPRLLHPVPLEGLGLGLGVSLLASLLNGLLAYHLLKEGRRHRSPALTADGYHVLSDVLTSLGVVLGVGLAGLTGLWVLDPLLALAVAGQILFLGYRIVRESVGGLMDEGLPPEEVERIRAFLQERIRGRALEVHDLKTRRAGPRSFLEFHLVVRGDTPVEEAHRLCDELERALAQAFPGLQATIHVEPEGERKRTNP
modifications: Thermus thermophilus CzrB
B2: partial czrB: Truncated form of the CzrB protein, 92 amino acids (SEQ ID NO: 2), C-terminal cytoplasmic tail (protein)
chain: MDEGLPPEEVERIRAFLQERIRGRALEVHDLKTRRAGPRSFLEFHLVVRGDTPVEEAHRLCDELERALAQAFPGLQATIHVEPEGERKRTNP
modifications: Thermus thermophilus CzrB

Columns and labels:
Assay type in all cases: cell-based
E. coli JM83 = test: Minimal inhibitory concentrations (MICs) for metal cations, E. coli JM83; conditions: 40 h at 37° C.
[1] = system: E. coli JM83 containing pUC
[2] = system: E. coli JM83 containing pUC with cloned czrB; test: Minimal inhibitory concentrations (MICs) for metal cations, JM83 containing pUC with cloned czrB; conditions: clone +pUC-czrB
E. coli cultures [3] = test: Anti-FITC ELISA of phage-displayed functional antibody; conditions: 10 and 22 h after induction
Experimental: (§1) Individual clones were analysed by restriction digestion after 22 h of induction to confirm that they contained both the Thermus insert and the recombinant antibody gene. […] Immunoplate wells (Nunc) were coated with 100 μl of FITC-BSA and blocked with 5% skimmed milk in PBST. After washing, 100 μl of phage solutions containing 0.5% skimmed milk were added and incubated for 2 h at 25° C. Phage particles were detected using a peroxidase-conjugated anti-M13 antibody (1:3000 in PBST; Amersham Pharmacia Biotech Inc.) and development was carried out using a BM Blue POD soluble substrate (Roche Diagnostics). After stopping the reaction using 25 μl of 1 N H2SO4, the absorbance was read at 405 nm. […] The results are depicted in FIGS. 6 and 7.
FIG. 7 depicts ELISA analysis of clones expressing czrB. […] Results are shown for samples taken 10 and 22 h after induction.

E. coli cells [4] = test: Growth of E. coli with czrB expressed from lac promoter in pUC-based vector; conditions: Plac induction; no bacteriophage, no recombinant antibody
From the text: To investigate this theory further, czrB was expressed from a lac promoter in a standard pUC-based expression vector, in the absence of bacteriophage particles and the recombinant antibody used in experiments thus far. […] This raises the possibility that CzrB, in its full length form or as a truncated version, might function as an “universal chaperone”, which would facilitate the expression of any recombinant or heterologous proteins produced in an E. coli host.

E. coli cultures [5] = test: Phage titers of E. coli clones; conditions: pHB102 vs pHB102-czrB; 10 and 22 h after induction
Experimental: as §1
FIG. 6 depicts phage titers of clones expressing czrB. The phage titers of clones containing pHB102 phagemid vector or pHB102-czrB expressed as colony forming units (cfu) were determined 10 and 22 h after induction.

E. coli cells [6] = test: Intracellular zinc concentration in E. coli clones (atomic absorption); conditions: 1 h incubation in 0, 1, 2, 5 mM extracellular zinc; vs JM83 and pUC alone
From the text: Metal resistances of the type observed with the czrB clones can be the result of metal sequestering or modification of metal transport processes. However, based on reports of CzrB homologues in other organisms it was postulated that the protein CzrB provided resistance to heavy metal ions by an efflux mechanism rather than by metal sequestering. Therefore, the ability of the T. thermophilus CzrB protein to pump zinc ions out of the E. coli cells in which it was expressed was investigated. Intracellular zinc concentrations were measured as follows: E. coli clones were grown at 37° C. in LB medium (100 μg/ml ampicillin, 25 μg/ml streptomycin) in the presence or absence of 165 μM ZnCl2 until an OD600 of 1.0 was reached. After addition of 1, 2 or 5 mM ZnCl2, growth was continued for 30 min, 1 h or 2 h, with control cultures grown in the absence of ZnCl2. […] The zinc concentration was measured in the supernatant using an atomic absorption spectrophotometer (Varian SpectrAA-400 Plus), with standard solutions prepared immediately before use from commercial standards (Fisher Scientific). […] The results are shown in FIG. 3 which depicts a quantification of intracellular zinc levels in E. coli clones: JM83 (“JM83”), JM83 containing pUC (“pUC”), and JM83 containing pUC-czrB without (“czrB”) and with (“czrB (Zn)”) a zinc pre-induction step. […]

E. coli cells [7] = test: Growth (OD600) of E. coli clones during bacteriophage and recombinant antibody production; conditions: pHB102 phagemid, during phage and antibody production
Experimental: E. coli cells harbouring the Thermus library were inoculated to an OD600<0.05 in 10 ml 2xYT medium containing tetracycline (15 μg/ml), additional salts (8.6 mM NaCl; 2.5 mM KCl; 10 mM MgCl2) and 0.4% glucose. After 1 h at 37° C., 30 μg/ml chloramphenicol was added, followed by 10^10 pfu of helper phage (VCSM13 helper phage; Stratagene) at an OD600 of 0.5. Incubation at 50° C. for 5 min was followed by the addition of 50 ml 2xYT containing tetracycline, chloramphenicol, additional salts and 0.5 mM isopropyl-β-D-thiogalactoside (IPTG). The culture was shaken at 40° C. for 2 h and, after the addition of 30 μg/ml kanamycin, grown for a further 12-14 h at 40° C. Phage particles were precipitated from culture supernatants by two PEG precipitation steps and resuspended in 1 ml PBS (8 g NaCl, 0.24 g KH2PO4, 1.44 g Na2HPO4, 0.2 g KCl in 1 L, pH 7.4). Immunotubes (Nunc) were coated overnight at 4° C. with 1 μg/ml fluorescein-isothiocyanate coupled to bovine serum albumin (FITC-BSA) (Bothmann, H. and Plückthun, A (1998) supra) in PBS. […]
E. coli cells infected with phage were grown as described in Example 1. The OD600 was read at hourly intervals for the first 8-10 h after induction. […]

[8] = clone +pUC, pre-induction cadmium (80 μM CdCl2)
[9] = clone +pUC, pre-induction cobalt (220 μM CoCl2)
[10] = clone +pUC, pre-induction none, 40 h at 37° C.
[11] = clone +pUC, pre-induction zinc (165 μM ZnCl2)
[12] = pre-induction cadmium (80 μM CdCl2)
[13] = pre-induction cobalt (220 μM CoCl2)
[14] = pre-induction zinc (165 μM ZnCl2)

| Molecule | MIC (E. coli JM83; clone JM83, pre-induction none) [mM] | MIC [1, 8] [mM] | MIC [1, 9] [mM] | MIC [1, 10] [mM] | MIC [1, 11] [mM] | MIC [2, 12] [mM] | MIC [2, 13] [mM] | MIC ([2]; pre-induction none) [mM] | MIC [2, 14] [mM] | MIC (E. coli JM83) [mM] | MIC [1] [mM] | MIC ([1]; 40 h at 37° C.) [mM] | amount of functional antibody relative to cultures containing the vector alone (E. coli cultures [3]) | E. coli cell growth relative to cells containing the vector alone (E. coli cells [4]) | phage titres relative to cultures containing the vector alone (E. coli cultures [5]) | levels of zinc in E. coli cells (E. coli cells [6]) | cell densities attained relative to cells containing just the phagemid vector (E. coli cells [7]) | growth characteristics (E. coli cells [7]) |
| --- | --- | --- | --- | --- | --- | --- | --- | --- | --- | --- | --- | --- | --- | --- | --- | --- | --- | --- |
| [Cl][Cd][Cl] [Cadmium, CdCl2] | 0.9 | 0.7 | 0.9 | 0.9 | 0.9 | 0.9 | 1.1 | 1.0 | 1.0 | – | – | – | – | – | – | – | – | – |
| [Cl-].[Cl-].[Co+2] [Cobalt, CoCl2] | – | – | – | – | – | 2.1 | 2.1 | 2.1 | 2.1 | 2.1 | 2.1 | 2.1 | – | – | – | – | – | – |
| [Cl-].[Cl-].[Zn+2] [Zinc, ZnCl2] | 2.0 | 1.6 | 1.6 | 1.6 | 1.6 | 2.2 | 2.1 | 1.9 | 2.5 | – | – | – | – | – | – | – | – | – |
| B1 | – | – | – | – | – | – | – | – | – | – | – | – | more than twice | same pattern of E. coli cell growth | two-fold higher | significantly reduce | greater than 2 fold | – |
| B2 | – | – | – | – | – | – | – | – | – | – | – | – | intermediate between the full-length gene and the control culture | – | intermediate between the full-length gene and the control culture | – | – | intermediate between the full-length czrB clone and cells containing the phagemid vector |
